Assay results published in PubChem BioAssay AID1918998 (Molecular Pharmacology Branch, DTP, NCI, 2023).

System: 521955-158-R2-J5-PDC complex spheroid growth
Assay: Anticancer human tumor 521955-158-R2-J5-PDC patient-derived pancreatic carcinoma cell line growth inhibition [AhR]
Conditions: for IC50: curve of first compound; for viability, T/C: stronger effect = lower value
Outline: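 Complex tumor spheroids co-cultured with HUVEC and human MSC stroma; AhR antagonists tested in combination with standard-of-care and investigational agents. Top concentration at or near clinical Cmax (else 10 microM), half-log dilutions; growth expressed as percent test/control.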

[1] = second compound 0.1 µM, first compound 0.0316 µM
[2] = second compound 0.1 µM, first compound 0.1 µM
[3] = second compound 0.316 µM, first compound 0.0316 µM
[4] = second compound 0.316 µM, first compound 0.1 µM
[5] = second compound 1 µM, first compound 0.0316 µM
[6] = second compound 1 µM, first compound 0.1 µM
[7] = second compound 3.16 µM, first compound 0.0316 µM
[8] = second compound 3.16 µM, first compound 0.1 µM
[9] = second compound 10 µM, first compound 0.0316 µM
[10] = second compound 10 µM, first compound 0.1 µM
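Throughout, for viability, T/C: spheroids mix tumor cells with HUVEC endothelium and human MSC stroma; luminescence taken as viability surrogate after a week of drug exposure.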

CCN(c1cc(-c2ccc(CN3CCOCC3)cc2)cc(C(=O)NCc2c(C)cc(C)[nH]c2=O)c1C)C1CCOCC1 + Cc1ccccc1N=Nc1ccc(NC(=O)c2ccnn2C)c(C)c1
IC50 (second compound 0.1 µM): > 3 µM | IC50 (second compound 0.316 µM): > 3 µM | IC50 (second compound 1 µM): > 3 µM | IC50 (second compound 3.16 µM): > 3 µM | IC50 (second compound 10 µM): > 3 µM | viability, T/C (second compound 0.1 µM, first compound 0.00949 µM): 123% | viability, T/C (second compound 0.1 µM, first compound 0.03 µM): 110% | viability, T/C (second compound 0.1 µM, first compound 0.0949 µM): 103% | viability, T/C (second compound 0.1 µM, first compound 0.3 µM): 89.1% | viability, T/C (second compound 0.1 µM, first compound 0.949 µM): 74.4% | viability, T/C (second compound 0.1 µM, first compound 3 µM): 79.9% | viability, T/C (second compound 0.316 µM, first compound 0.00949 µM): 111% | viability, T/C (second compound 0.316 µM, first compound 0.03 µM): 106% | viability, T/C (second compound 0.316 µM, first compound 0.0949 µM): 110% | viability, T/C (second compound 0.316 µM, first compound 0.3 µM): 83.1% | viability, T/C (second compound 0.316 µM, first compound 0.949 µM): 76.6% | viability, T/C (second compound 0.316 µM, first compound 3 µM): 84.3% | viability, T/C (second compound 1 µM, first compound 0.00949 µM): 96.6% | viability, T/C (second compound 1 µM, first compound 0.03 µM): 113% | viability, T/C (second compound 1 µM, first compound 0.0949 µM): 97.2% | viability, T/C (second compound 1 µM, first compound 0.3 µM): 83.6% | viability, T/C (second compound 1 µM, first compound 0.949 µM): 95.7% | viability, T/C (second compound 1 µM, first compound 3 µM): 87.6% | viability, T/C (second compound 3.16 µM, first compound 0.00949 µM): 126% | viability, T/C (second compound 3.16 µM, first compound 0.03 µM): 128% | viability, T/C (second compound 3.16 µM, first compound 0.0949 µM): 128% | viability, T/C (second compound 3.16 µM, first compound 0.3 µM): 125% | viability, T/C (second compound 3.16 µM, first compound 0.949 µM): 102% | viability, T/C (second compound 3.16 µM, first compound 3 µM): 112% | viability, T/C (second compound 10 µM, first compound 0.00949 µM): 164% | viability, T/C (second compound 10 µM, first compound 0.03 µM): 153% | viability, T/C (second compound 10 µM, first compound 0.0949 µM): 166% | viability, T/C (second compound 10 µM, first compound 0.3 µM): 150% | viability, T/C (second compound 10 µM, first compound 0.949 µM): 126% | viability, T/C (second compound 10 µM, first compound 3 µM): 122%

Cn1ncnc1C1c2n[nH]c(=O)c3cc(F)cc(c23)NC1c1ccc(F)cc1 (stereo not given) + Cc1cncc(-c2nc(NCCc3c[nH]c4ccccc34)c3ncn(C(C)C)c3n2)c1
IC50 (second compound 0.1 µM): > 0.1 µM | IC50 (second compound 0.316 µM): > 0.1 µM | IC50 (second compound 1 µM): > 0.1 µM | IC50 (second compound 3.16 µM): > 0.1 µM | IC50 (second compound 10 µM): > 0.1 µM | viability, T/C (second compound 0.1 µM, first compound 0.000316 µM): 114% | viability, T/C (second compound 0.1 µM, first compound 0.001 µM): 106% | viability, T/C (second compound 0.1 µM, first compound 0.00316 µM): 94.6% | viability, T/C (second compound 0.1 µM, first compound 0.01 µM): 109% | viability, T/C [1]: 93% | viability, T/C [2]: 83% | viability, T/C (second compound 0.316 µM, first compound 0.000316 µM): 105% | viability, T/C (second compound 0.316 µM, first compound 0.001 µM): 121% | viability, T/C (second compound 0.316 µM, first compound 0.00316 µM): 93.3% | viability, T/C (second compound 0.316 µM, first compound 0.01 µM): 110% | viability, T/C [3]: 87.6% | viability, T/C [4]: 101% | viability, T/C (second compound 1 µM, first compound 0.000316 µM): 122% | viability, T/C (second compound 1 µM, first compound 0.001 µM): 117% | viability, T/C (second compound 1 µM, first compound 0.00316 µM): 116% | viability, T/C (second compound 1 µM, first compound 0.01 µM): 127% | viability, T/C [5]: 116% | viability, T/C [6]: 99.5% | viability, T/C (second compound 3.16 µM, first compound 0.000316 µM): 114% | viability, T/C (second compound 3.16 µM, first compound 0.001 µM): 142% | viability, T/C (second compound 3.16 µM, first compound 0.00316 µM): 115% | viability, T/C (second compound 3.16 µM, first compound 0.01 µM): 119% | viability, T/C [7]: 122% | viability, T/C [8]: 107% | viability, T/C (second compound 10 µM, first compound 0.000316 µM): 134% | viability, T/C (second compound 10 µM, first compound 0.001 µM): 143% | viability, T/C (second compound 10 µM, first compound 0.00316 µM): 106% | viability, T/C (second compound 10 µM, first compound 0.01 µM): 105% | viability, T/C [9]: 111% | viability, T/C [10]: 104%

COc1ccc([C@@H](O)c2cc(-c3ncnc4cc(N5CCOCC5)ccc34)c(F)cc2Cl)nn1 + Cc1cncc(-c2nc(NCCc3c[nH]c4ccccc34)c3ncn(C(C)C)c3n2)c1
IC50 (second compound 0.1 µM): > 10 µM | IC50 (second compound 0.316 µM): > 10 µM | IC50 (second compound 1 µM): > 10 µM | IC50 (second compound 3.16 µM): > 10 µM | IC50 (second compound 10 µM): > 10 µM | viability, T/C [1]: 102% | viability, T/C [2]: 102% | viability, T/C (second compound 0.1 µM, first compound 0.316 µM): 99.7% | viability, T/C (second compound 0.1 µM, first compound 1 µM): 78.1% | viability, T/C (second compound 0.1 µM, first compound 3.16 µM): 65.8% | viability, T/C (second compound 0.1 µM, first compound 10 µM): 50.8% | viability, T/C [3]: 118% | viability, T/C [4]: 116% | viability, T/C (second compound 0.316 µM, first compound 0.316 µM): 113% | viability, T/C (second compound 0.316 µM, first compound 1 µM): 85.1% | viability, T/C (second compound 0.316 µM, first compound 3.16 µM): 75.1% | viability, T/C (second compound 0.316 µM, first compound 10 µM): 54.4% | viability, T/C [5]: 115% | viability, T/C [6]: 127% | viability, T/C (second compound 1 µM, first compound 0.316 µM): 113% | viability, T/C (second compound 1 µM, first compound 1 µM): 104% | viability, T/C (second compound 1 µM, first compound 3.16 µM): 83.3% | viability, T/C (second compound 1 µM, first compound 10 µM): 61.6% | viability, T/C [7]: 134% | viability, T/C [8]: 153% | viability, T/C (second compound 3.16 µM, first compound 0.316 µM): 130% | viability, T/C (second compound 3.16 µM, first compound 1 µM): 111% | viability, T/C (second compound 3.16 µM, first compound 3.16 µM): 96.3% | viability, T/C (second compound 3.16 µM, first compound 10 µM): 65.9% | viability, T/C [9]: 138% | viability, T/C [10]: 131% | viability, T/C (second compound 10 µM, first compound 0.316 µM): 175% | viability, T/C (second compound 10 µM, first compound 1 µM): 114% | viability, T/C (second compound 10 µM, first compound 3.16 µM): 62.9% | viability, T/C (second compound 10 µM, first compound 10 µM): 46.6%
